Laboratory results: ChEMBL document CHEMBL3397003, “Synthesis of dansyl-labeled probe of thiophene analogue of annonaceous acetogenins for visualization of cell distribution and growth inhibitory activity toward human cancer cell lines” (2015)
Blank lines part the entries; values can stand above or below the molecule they belong to.

What was measured:
Type in all cases: functional
[1] = test system: SK-OV-3; experiment: Growth inhibition of human SKOV3 cells after 48 hrs by sulforhodamine B colorimetric assay; conditions: SK-OV-3, 48 h, read-out: pGI50 (converted)
[2] = Growth inhibition of human SNB78 cells after 48 hrs by sulforhodamine B colorimetric assay; conditions: SNB-78, 48 h, read-out: pGI50 (converted)
[3] = Growth inhibition of human HBC4 cells after 48 hrs by sulforhodamine B colorimetric assay; conditions: HBC4, 48 h, read-out: pGI50 (converted)
[4] = test system: NCI-H522; experiment: Growth inhibition of human NCI-H522 cells after 48 hrs by sulforhodamine B colorimetric assay; conditions: NCI-H522, 48 h
[5] = test system: SF-268; experiment: Growth inhibition of human SF268 cells after 48 hrs by sulforhodamine B colorimetric assay; conditions: SF-268, 48 h, read-out: pGI50 (converted)
[6] = test system: U-251; experiment: Growth inhibition of human U251 cells after 48 hrs by sulforhodamine B colorimetric assay; conditions: U-251, 48 h, read-out: pGI50 (converted)
[7] = test system: MCF7; experiment: Growth inhibition of human MCF7 cells after 48 hrs by sulforhodamine B colorimetric assay; conditions: MCF7, 48 h
[8] = test system: A549; experiment: Growth inhibition of human A549 cells after 48 hrs by sulforhodamine B colorimetric assay; conditions: A549, 48 h, read-out: pGI50 (converted)
[9] = test system: NCI-H23; experiment: Growth inhibition of human NCI-H23 cells after 48 hrs by sulforhodamine B colorimetric assay; conditions: NCI-H23, 48 h
[10] = Growth inhibition of human SF295 cells after 48 hrs by sulforhodamine B colorimetric assay; conditions: SF-295, 48 h
[11] = Growth inhibition of human DMS273 cells after 48 hrs by sulforhodamine B colorimetric assay; conditions: DMS-273, 48 h
[12] = Growth inhibition of human RXF631L cells after 48 hrs by sulforhodamine B colorimetric assay; conditions: RXF 631, 48 h, read-out: pGI50 (converted)
[13] = Growth inhibition of human SF539 cells after 48 hrs by sulforhodamine B colorimetric assay; conditions: SF-539, 48 h, read-out: pGI50 (converted)
[14] = Growth inhibition of human MKN7 cells after 48 hrs by sulforhodamine B colorimetric assay; conditions: MKN-7, 48 h
[15] = Growth inhibition of human BSY1 cells after 48 hrs by sulforhodamine B colorimetric assay; conditions: BSY-1, 48 h
[16] = Growth inhibition of human HBC5 cells after 48 hrs by sulforhodamine B colorimetric assay; conditions: HBC5, 48 h
[17] = Growth inhibition of human OVCAR3 cells after 48 hrs by sulforhodamine B colorimetric assay; conditions: OVCAR-3, 48 h, read-out: pGI50 (converted)
[18] = test system: KM12; experiment: Growth inhibition of human KM12 cells after 48 hrs by sulforhodamine B colorimetric assay; conditions: KM12, 48 h, read-out: pGI50 (converted)
[19] = Growth inhibition of human DMS114 cells after 48 hrs by sulforhodamine B colorimetric assay; conditions: DMS-114, 48 h
[20] = Growth inhibition of human HCT15 cells after 48 hrs by sulforhodamine B colorimetric assay; conditions: HCT-15, 48 h, read-out: pGI50 (converted)
[21] = test system: NCI-H460; experiment: Growth inhibition of human NCI-H460 cells after 48 hrs by sulforhodamine B colorimetric assay; conditions: NCI-H460, 48 h, read-out: pGI50 (converted)
[22] = test system: ACHN; experiment: Growth inhibition of human ACHN cells after 48 hrs by sulforhodamine B colorimetric assay; conditions: read-out: pGI50 (converted)
[23] = test system: DU-145; experiment: Growth inhibition of human DU145 cells after 48 hrs by sulforhodamine B colorimetric assay; conditions: DU-145, 48 h, read-out: pGI50 (converted)
[24] = Growth inhibition of human OVCAR8 cells after 48 hrs by sulforhodamine B colorimetric assay; conditions: OVCAR-8, 48 h, read-out: pGI50 (converted)
[25] = test system: HT-29; experiment: Growth inhibition of human HT-29 cells after 48 hrs by sulforhodamine B colorimetric assay; conditions: HT-29, 48 h, read-out: pGI50 (converted)
[26] = test system: SNB-75; experiment: Growth inhibition of human SNB75 cells after 48 hrs by sulforhodamine B colorimetric assay; conditions: SNB-75, 48 h, read-out: pGI50 (converted)
[27] = test system: MDA-MB-231; experiment: Growth inhibition of human MDA-MB-231 cells after 48 hrs by sulforhodamine B colorimetric assay; conditions: MDA-MB-231, 48 h, read-out: pGI50 (converted)
[28] = Growth inhibition of human MKN1 cells after 48 hrs by sulforhodamine B colorimetric assay; conditions: MKN-1, 48 h, read-out: pGI50 (converted)
[29] = Growth inhibition of human MKN45 cells after 48 hrs by sulforhodamine B colorimetric assay; conditions: MKN-45, 48 h, read-out: pGI50 (converted)
[30] = test system: NCI-H226; experiment: Growth inhibition of human NCI-H226 cells after 48 hrs by sulforhodamine B colorimetric assay; conditions: NCI-H226, 48 h, read-out: pGI50 (converted)
[31] = Growth inhibition of human OVCAR4 cells after 48 hrs by sulforhodamine B colorimetric assay; conditions: OVCAR-4, 48 h, read-out: pGI50 (converted)
[32] = Growth inhibition of human OVCAR5 cells after 48 hrs by sulforhodamine B colorimetric assay; conditions: OVCAR-5, 48 h, read-out: pGI50 (converted)
[33] = Growth inhibition of human MKN28 cells after 48 hrs by sulforhodamine B colorimetric assay; conditions: MKN-28, 48 h
[34] = Growth inhibition of human HCT116 cells after 48 hrs by sulforhodamine B colorimetric assay; conditions: HCT-116, 48 h
[35] = Growth inhibition of human LOXIMVI cells after 48 hrs by sulforhodamine B colorimetric assay; conditions: LOX IMVI
[36] = Growth inhibition of human HCC2998 cells after 48 hrs by sulforhodamine B colorimetric assay; conditions: HCC 2998, 48 h, read-out: pGI50 (converted)
[37] = test system: St-4; experiment: Growth inhibition of human St-4 cells after 48 hrs by sulforhodamine B colorimetric assay; conditions: St-4, 48 h, read-out: pGI50 (converted)
[38] = Growth inhibition of human MKN74 cells after 48 hrs by sulforhodamine B colorimetric assay; conditions: MKN-74, 48 h
[39] = Growth inhibition of human PC3 cells after 48 hrs by sulforhodamine B colorimetric assay; conditions: PC-3, 48 h, read-out: pGI50 (converted)

GI50 [1]: > 100 µM
GI50 [4]: 1 µM
GI50 [6]: > 100 µM
GI50 [7]: 2 µM
GI50 [8]: > 100 µM
GI50 [9]: 0.2 µM
Structure (SMILES): CCCCCCCCCCCC[C@@H](O)[C@H]1CC[C@H]([C@H](O)CCCCCCCCCCNC(=O)c2ccsc2)O1
GI50 [2]: > 100 µM
GI50 [3]: > 100 µM
GI50 [5]: > 100 µM
GI50 [10]: 1 µM
GI50 [11]: 2 µM
GI50 [12]: > 100 µM
GI50 [13]: > 100 µM

GI50 [1]: > 100 µM
GI50 [21]: > 100 µM
GI50 [22]: > 100 µM
GI50 [23]: > 100 µM
GI50 [25]: > 100 µM
GI50 [4]: 25.7 µM
GI50 [6]: > 100 µM
GI50 [27]: > 100 µM
GI50 [7]: 2.88 µM
GI50 [8]: > 100 µM
GI50 [30]: > 100 µM
GI50 [9]: 36.3 µM
Structure (SMILES): CN(C)c1cccc2c(S(=O)(=O)NCCCCCCCCC[C@@H](O)[C@H]3CC[C@H]([C@H](O)CCCCCCCCCCNC(=O)c4ccsc4)O3)cccc12
GI50 [14]: 0.0363 µM
GI50 [15]: 1.2 µM
GI50 [16]: 0.363 µM
GI50 [2]: > 100 µM
GI50 [17]: > 100 µM
GI50 [18]: > 100 µM
GI50 [19]: 0.0302 µM
GI50 [20]: > 100 µM
GI50 [3]: > 100 µM
GI50 [24]: > 100 µM
GI50 [26]: > 100 µM
GI50 [5]: > 100 µM
GI50 [28]: > 100 µM
GI50 [29]: > 100 µM
GI50 [31]: > 100 µM
GI50 [10]: 12.9 µM
GI50 [11]: > 100 µM
GI50 [32]: > 100 µM
GI50 [33]: 0.0363 µM
GI50 [34]: 0.302 µM
GI50 [35]: 0.676 µM
GI50 [12]: > 100 µM
GI50 [13]: > 100 µM
GI50 [36]: > 100 µM
GI50 [37]: > 100 µM
GI50 [38]: 33.1 µM
GI50 [39]: > 100 µM
